Literature values, collected in patent US6673373B2, “Antifungal formulation and the methods for manufacturing and using the same” (Carlsbad Technology Inc., priority 2001, dated 2004).

Columns and labels:
[1] = not given; remark: listed apart in the source
[2] = not given; remark: listed apart in the source

Molecule: CCC(C)n1ncn(-c2ccc(N3CCN(c4ccc(OC[C@H]5CO[C@](Cn6cncn6)(c6ccc(Cl)cc6Cl)O5)cc4)CC3)cc2)c1=O (mixture of isomers) [itraconazole, (±)-cis-4-[4-[4-[4-[[2-(2,4-dichlorophenyl)-2-(1H-1,2,4-triazol-1-ylmethyl)-1,3-dioxolan-4-yl]methoxy]phenyl]-1-piperazinyl]phenyl]-2,4-dihydro-2-(1-methylpropyl)-3H-1,2,4-triazol-3-one]
- solubility in water: less than 1 μg/ml
- binding rate with plasma proteins (plasma proteins): 99.8%
- time to reach peak concentration in plasma ([1]; after taken by the patients): 3 to 4 h
- concentration in blood as % of that in plasma ([1]; in vivo): about 60%
- itraconazole in its original form excreted in feces ([1]; in vivo): 3-18%
- itraconazole in its original form secreted in urine ([1]; in vivo): ≤ 0.03%
- plasma half life ([1]; in vivo): 24 to 36 h
- itraconazole metabolites secreted in urine ([1]; within a week after the uptake of the drug): About 35%

Molecule: hydroxy-itraconazole
- antifungal activity in vitro [2]: demonstrated in vitro to have antifungal activity
